{"source": "patent US20230270712A1", "about": "“NOBILETIN COMPOSITIONS AND METHODS FOR THE TREATMENT AND PREVENTION OF COVID-19 AND RELATED PATHOLOGIES” (CAS PROPERTIES, LLC, priority 2020, published 2023)", "key": {"[1]": {"biological_target": "MMP-1 (Homo sapiens, UniProt P03956)", "sequence (P03956 100-469, species assumed)": "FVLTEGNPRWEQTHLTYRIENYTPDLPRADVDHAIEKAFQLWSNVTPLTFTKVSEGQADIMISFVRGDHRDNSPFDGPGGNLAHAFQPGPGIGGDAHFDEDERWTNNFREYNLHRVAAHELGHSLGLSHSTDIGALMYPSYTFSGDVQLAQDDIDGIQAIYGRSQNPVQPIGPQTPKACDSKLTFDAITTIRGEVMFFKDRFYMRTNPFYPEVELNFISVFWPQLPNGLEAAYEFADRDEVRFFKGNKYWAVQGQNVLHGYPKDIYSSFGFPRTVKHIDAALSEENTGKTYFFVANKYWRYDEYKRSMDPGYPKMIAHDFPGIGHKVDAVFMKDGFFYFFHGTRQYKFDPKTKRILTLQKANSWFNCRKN", "conditions": "cited from earlier work"}, "[2]": {"tested_on": "5′ adenosine monophosphate-activated protein kinase (AMPK)", "conditions": "cited from earlier work"}, "[3]": {"tested_on": "enterovirus 71", "conditions": "cited from earlier work"}, "[4]": {"tested_on": "natural killer (NK) cells", "conditions": "cited from earlier work"}, "[5]": {"tested_on": "chikungunya (CHIKV)", "conditions": "cited from earlier work"}, "[6]": {"tested_on": "induced lung damage", "conditions": "acute lung injury research model, dose-dependent; cited from earlier work"}, "[7]": {"tested_on": "toll-like receptor (TLR) 2+TLR4", "conditions": "cited from earlier work"}, "[8]": {"tested_on": "platelet aggregation", "conditions": "cited from earlier work"}, "[9]": {"tested_on": "MCP-1", "conditions": "cited from earlier work"}, "[10]": {"tested_on": "TNF-α", "conditions": "cited from earlier work"}, "[11]": {"tested_on": "leukocyte infiltration into inflamed tissue", "conditions": "in vivo; cited from earlier work"}, "[12]": {"biological_target": "MMP-2 (Homo sapiens, UniProt P08253)", "sequence (P08253 110-660, species assumed)": "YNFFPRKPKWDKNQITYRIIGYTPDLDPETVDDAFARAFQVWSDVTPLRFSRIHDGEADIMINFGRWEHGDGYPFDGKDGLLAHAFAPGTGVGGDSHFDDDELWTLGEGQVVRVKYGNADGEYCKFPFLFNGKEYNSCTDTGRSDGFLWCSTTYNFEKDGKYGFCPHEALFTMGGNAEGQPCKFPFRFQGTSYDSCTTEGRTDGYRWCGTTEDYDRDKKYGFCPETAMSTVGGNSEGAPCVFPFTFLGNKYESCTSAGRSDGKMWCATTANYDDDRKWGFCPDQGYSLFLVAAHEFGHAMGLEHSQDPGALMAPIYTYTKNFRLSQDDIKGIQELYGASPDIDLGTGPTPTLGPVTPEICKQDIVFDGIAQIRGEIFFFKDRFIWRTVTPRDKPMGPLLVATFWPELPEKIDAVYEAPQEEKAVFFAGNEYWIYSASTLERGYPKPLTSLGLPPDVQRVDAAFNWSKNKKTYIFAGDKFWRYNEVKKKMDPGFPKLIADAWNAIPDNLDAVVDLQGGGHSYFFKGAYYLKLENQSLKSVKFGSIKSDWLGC", "conditions": "cited from earlier work"}, "[13]": {"conditions": "in vivo; cited from earlier work"}, "[14]": {"tested_on": "TIMP-1", "conditions": "cited from earlier work"}, "[15]": {"tested_on": "IL-6", "conditions": "cited from earlier work"}, "[16]": {"tested_on": "hepatitis C virus", "conditions": "cited from earlier work"}, "[17]": {"tested_on": "lung function", "assay": "lung function in subjects having severe pneumonia", "format": "in vivo", "conditions": "including from COVID-19"}, "[18]": {"biological_target": "COX-2 (Homo sapiens, UniProt P35354)", "sequence (P35354 18-604)": "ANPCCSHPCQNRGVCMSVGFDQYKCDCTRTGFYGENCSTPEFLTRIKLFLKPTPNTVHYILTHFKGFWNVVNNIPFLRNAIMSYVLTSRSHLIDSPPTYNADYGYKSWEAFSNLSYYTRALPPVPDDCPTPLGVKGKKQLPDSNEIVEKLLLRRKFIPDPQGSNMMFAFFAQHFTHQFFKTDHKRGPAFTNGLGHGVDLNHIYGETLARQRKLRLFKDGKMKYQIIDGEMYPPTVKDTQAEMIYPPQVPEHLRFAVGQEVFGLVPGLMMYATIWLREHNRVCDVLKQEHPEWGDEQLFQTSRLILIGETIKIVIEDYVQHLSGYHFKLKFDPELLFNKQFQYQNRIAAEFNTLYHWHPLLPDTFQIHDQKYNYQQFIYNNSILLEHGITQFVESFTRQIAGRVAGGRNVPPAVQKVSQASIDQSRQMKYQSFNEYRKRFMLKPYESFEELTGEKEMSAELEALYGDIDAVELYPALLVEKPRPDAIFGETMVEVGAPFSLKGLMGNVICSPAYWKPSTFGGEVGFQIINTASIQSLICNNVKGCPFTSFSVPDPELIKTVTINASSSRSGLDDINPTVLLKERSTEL", "conditions": "cited from earlier work"}, "[19]": {"biological_target": "MMP-9 (Homo sapiens, UniProt P14780)", "sequence (P14780 94-707, species assumed)": "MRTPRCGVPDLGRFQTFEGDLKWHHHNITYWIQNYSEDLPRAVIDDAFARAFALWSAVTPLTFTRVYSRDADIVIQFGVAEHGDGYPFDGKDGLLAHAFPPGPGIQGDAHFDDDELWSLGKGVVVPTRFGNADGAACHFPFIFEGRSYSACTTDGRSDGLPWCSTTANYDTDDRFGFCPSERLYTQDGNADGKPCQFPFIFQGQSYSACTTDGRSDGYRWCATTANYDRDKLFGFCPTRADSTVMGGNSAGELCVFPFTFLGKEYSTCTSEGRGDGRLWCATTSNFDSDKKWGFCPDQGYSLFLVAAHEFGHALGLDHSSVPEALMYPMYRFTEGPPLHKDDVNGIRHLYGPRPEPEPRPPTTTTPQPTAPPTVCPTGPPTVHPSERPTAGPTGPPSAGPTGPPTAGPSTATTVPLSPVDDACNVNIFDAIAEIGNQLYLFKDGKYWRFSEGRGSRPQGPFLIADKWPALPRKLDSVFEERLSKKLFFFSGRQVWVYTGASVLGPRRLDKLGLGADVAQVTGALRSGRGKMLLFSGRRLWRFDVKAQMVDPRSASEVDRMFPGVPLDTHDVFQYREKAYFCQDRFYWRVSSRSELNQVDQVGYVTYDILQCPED", "conditions": "cited from earlier work"}, "[20]": {"assay": "bioavailability and tissue penetration", "conditions": "in vivo"}, "[21]": {"tested_on": "IL1-α", "conditions": "cited from earlier work"}, "[22]": {"biological_target": "MMP-3 (Homo sapiens, UniProt P08254)", "sequence (P08254 100-477, species assumed)": "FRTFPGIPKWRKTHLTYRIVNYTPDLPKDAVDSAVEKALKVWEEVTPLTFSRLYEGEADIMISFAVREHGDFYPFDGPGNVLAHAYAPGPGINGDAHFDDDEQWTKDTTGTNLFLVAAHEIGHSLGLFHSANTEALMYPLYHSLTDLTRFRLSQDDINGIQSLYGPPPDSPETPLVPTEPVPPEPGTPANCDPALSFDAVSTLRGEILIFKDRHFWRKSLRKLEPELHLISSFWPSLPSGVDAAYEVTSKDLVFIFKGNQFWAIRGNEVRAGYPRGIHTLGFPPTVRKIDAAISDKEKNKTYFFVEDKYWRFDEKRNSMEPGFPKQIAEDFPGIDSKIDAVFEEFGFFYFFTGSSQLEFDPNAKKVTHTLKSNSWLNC", "conditions": "cited from earlier work"}, "[23]": {"tested_on": "IL1-β", "conditions": "cited from earlier work"}, "[24]": {"conditions": "higher concentration of nobiletin"}}, "note": "Read-outs that look alike come from different tables or passages of the source."}
{"smiles": "COc1ccc(-c2cc(=O)c3c(OC)c(OC)c(OC)c(OC)c3o2)cc1OC", "note": "[nobiletin, 5,6,7,8,3′,4′-hexamethoxyflavone]", "values": [{"measurement": "inhibition of MMP-1", "setting": "[1]", "result": "inhibiting"}, {"measurement": "AMPK levels and activity", "setting": "[2]", "result": "increasing"}, {"measurement": "anti-viral activity against enterovirus 71", "setting": "[3]", "result": "direct anti-viral activity"}, {"measurement": "anti-viral activity of NK cells", "setting": "[4]", "result": "potentiating"}, {"measurement": "inhibition of chikungunya (CHIKV) infection", "setting": "[5]; at viral entry as well as during translation/replication state", "result": "inhibit chikungunya (CHIKV) infection"}, {"measurement": "cell survival of virally infected cells", "setting": "[5]; [24]", "result": "~90", "unit": "%"}, {"measurement": "increase in survival of virally infected cells", "setting": "[5]; [24]", "result": 6, "unit": "fold"}, {"measurement": "increase in survival of virally infected cells", "setting": "[5]; lower concentration of nobiletin, cell survival without it <15%", "result": 4, "unit": "fold"}, {"measurement": "induced lung damage", "setting": "[6]", "result": "nearly eliminated lung damage"}, {"measurement": "inhibition of TLR2+TLR4", "setting": "[7]", "result": "significantly inhibiting"}, {"measurement": "platelet aggregation", "setting": "[8]", "result": "suppression of platelet aggregation"}, {"measurement": "inhibition of MCP-1", "setting": "[9]", "result": "significantly inhibiting"}, {"measurement": "inhibition of TNF-α", "setting": "[10]", "result": "significantly inhibiting"}, {"measurement": "leukocyte infiltration into inflamed tissue", "setting": "[11]", "result": "significantly reduces"}, {"measurement": "inhibition of MMP-2", "setting": "[12]", "result": "inhibiting"}, {"measurement": "anti-obesity effects", "setting": "[13]", "result": "weight loss, fat loss"}, {"measurement": "effect on TIMP-1", "setting": "[14]", "result": "upregulating"}, {"measurement": "inhibition of IL-6", "setting": "[15]", "result": "significantly inhibiting"}, {"measurement": "activity against hepatitis C virus", "setting": "[16]", "result": "significant activity"}, {"measurement": "lung function", "setting": "[17]", "result": "excellent ability to restore lung function"}, {"measurement": "inhibition of COX-2 (and its metabolite PGE2)", "setting": "[18]", "result": "inhibiting"}, {"measurement": "inhibition of MMP-9", "setting": "[19]", "result": "inhibiting"}, {"measurement": "relative bioavailability", "setting": "[20]", "result": "high relative bioavailability"}, {"measurement": "tissue penetration", "setting": "[20]", "result": "high tissue penetration"}, {"measurement": "inhibition of IL1-α", "setting": "[21]", "result": "significantly inhibiting"}, {"measurement": "inhibition of MMP-3", "setting": "[22]", "result": "inhibiting"}, {"measurement": "inhibition of IL1-β", "setting": "[23]", "result": "significantly inhibiting"}]}
